Data from patent EP1383793B1 (priority 2000, dated 2001).
Where two headings read alike, the source gives them in different places. Positions of bridges follow the written chain, without caps; N, C: chain ends. Residues, ends and D or L forms follow the SMILES beside them. No end group written: not given here. *: point of attachment. Biotin = O=C1N[C@H]2[C@H](CS[C@H]2CCCCC(=O)*)N1

What was measured:
[1] = molecular target: human IGF-1 receptor (HIGF-1R) (Homo sapiens, UniProt P08069); test: 125I-IGF-1 competition binding assay on solubilised purified receptor; conditions: for Ratio: Kd HIGF1R / Kd HIR
human IGF-1 receptor (HIGF-1R), sequence (P08069 31-736 limits assumed): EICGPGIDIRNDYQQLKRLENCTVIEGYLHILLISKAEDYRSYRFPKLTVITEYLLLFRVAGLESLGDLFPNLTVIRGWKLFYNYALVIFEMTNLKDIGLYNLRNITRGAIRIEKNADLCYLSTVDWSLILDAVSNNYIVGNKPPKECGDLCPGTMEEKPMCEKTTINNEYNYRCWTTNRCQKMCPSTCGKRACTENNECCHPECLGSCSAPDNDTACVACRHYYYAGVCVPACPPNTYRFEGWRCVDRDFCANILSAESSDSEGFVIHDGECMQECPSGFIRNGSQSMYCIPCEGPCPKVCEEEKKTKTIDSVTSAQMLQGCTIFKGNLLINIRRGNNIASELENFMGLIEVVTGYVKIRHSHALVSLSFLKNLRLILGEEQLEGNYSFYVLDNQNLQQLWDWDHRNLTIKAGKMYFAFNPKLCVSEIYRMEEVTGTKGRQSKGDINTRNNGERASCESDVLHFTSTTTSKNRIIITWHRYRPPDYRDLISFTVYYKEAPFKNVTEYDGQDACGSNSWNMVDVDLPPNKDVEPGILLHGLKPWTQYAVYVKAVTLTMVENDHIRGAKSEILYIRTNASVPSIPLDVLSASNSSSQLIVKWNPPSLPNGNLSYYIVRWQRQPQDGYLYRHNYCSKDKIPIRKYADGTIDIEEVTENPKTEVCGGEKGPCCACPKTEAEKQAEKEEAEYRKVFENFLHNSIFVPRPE
human IGF-1 receptor (HIGF-1R), sequence (P08069 741-1367 limits assumed): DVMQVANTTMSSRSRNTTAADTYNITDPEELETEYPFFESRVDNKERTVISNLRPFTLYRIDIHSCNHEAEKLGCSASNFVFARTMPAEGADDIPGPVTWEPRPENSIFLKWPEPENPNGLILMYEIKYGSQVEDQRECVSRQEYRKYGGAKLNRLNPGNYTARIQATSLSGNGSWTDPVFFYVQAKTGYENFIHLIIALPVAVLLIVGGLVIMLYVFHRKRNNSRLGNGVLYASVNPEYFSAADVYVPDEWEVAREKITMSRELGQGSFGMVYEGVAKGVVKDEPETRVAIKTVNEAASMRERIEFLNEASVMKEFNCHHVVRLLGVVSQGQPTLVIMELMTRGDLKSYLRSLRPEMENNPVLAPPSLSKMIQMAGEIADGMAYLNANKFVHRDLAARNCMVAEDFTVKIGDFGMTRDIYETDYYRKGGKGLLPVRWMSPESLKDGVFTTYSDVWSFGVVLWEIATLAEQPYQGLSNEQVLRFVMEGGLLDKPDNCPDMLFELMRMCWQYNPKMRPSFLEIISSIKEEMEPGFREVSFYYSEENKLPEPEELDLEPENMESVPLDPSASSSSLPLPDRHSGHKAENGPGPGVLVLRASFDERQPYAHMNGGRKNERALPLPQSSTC

[2] = molecular target: T1, human insulin receptor (HIR) (Homo sapiens, UniProt P06213); test: 125I-insulin competition binding assay on solubilised purified receptor
T1 construct: made in house
T1 sequence (P06213 28-758 limits assumed): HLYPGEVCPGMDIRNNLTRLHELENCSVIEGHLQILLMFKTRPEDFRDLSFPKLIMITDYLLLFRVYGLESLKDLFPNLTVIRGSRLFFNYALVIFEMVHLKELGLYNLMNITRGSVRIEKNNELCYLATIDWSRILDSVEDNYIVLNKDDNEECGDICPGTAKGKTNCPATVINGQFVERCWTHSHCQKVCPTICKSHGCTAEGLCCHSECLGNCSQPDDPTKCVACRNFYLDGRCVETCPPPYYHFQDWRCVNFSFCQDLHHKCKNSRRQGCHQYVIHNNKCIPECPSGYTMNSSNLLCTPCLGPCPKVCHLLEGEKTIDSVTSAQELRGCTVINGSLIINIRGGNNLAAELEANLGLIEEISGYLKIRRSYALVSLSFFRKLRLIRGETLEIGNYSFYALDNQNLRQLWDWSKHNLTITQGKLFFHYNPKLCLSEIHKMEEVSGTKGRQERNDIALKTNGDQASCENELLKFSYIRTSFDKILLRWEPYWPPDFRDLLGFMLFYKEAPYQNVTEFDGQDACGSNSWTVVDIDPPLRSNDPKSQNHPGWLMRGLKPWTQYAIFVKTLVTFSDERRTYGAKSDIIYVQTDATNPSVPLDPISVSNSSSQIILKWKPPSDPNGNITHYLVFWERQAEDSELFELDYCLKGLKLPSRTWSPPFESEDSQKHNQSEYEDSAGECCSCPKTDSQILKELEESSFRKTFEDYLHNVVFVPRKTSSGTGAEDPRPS
T1 sequence (P06213 763-1382 limits assumed): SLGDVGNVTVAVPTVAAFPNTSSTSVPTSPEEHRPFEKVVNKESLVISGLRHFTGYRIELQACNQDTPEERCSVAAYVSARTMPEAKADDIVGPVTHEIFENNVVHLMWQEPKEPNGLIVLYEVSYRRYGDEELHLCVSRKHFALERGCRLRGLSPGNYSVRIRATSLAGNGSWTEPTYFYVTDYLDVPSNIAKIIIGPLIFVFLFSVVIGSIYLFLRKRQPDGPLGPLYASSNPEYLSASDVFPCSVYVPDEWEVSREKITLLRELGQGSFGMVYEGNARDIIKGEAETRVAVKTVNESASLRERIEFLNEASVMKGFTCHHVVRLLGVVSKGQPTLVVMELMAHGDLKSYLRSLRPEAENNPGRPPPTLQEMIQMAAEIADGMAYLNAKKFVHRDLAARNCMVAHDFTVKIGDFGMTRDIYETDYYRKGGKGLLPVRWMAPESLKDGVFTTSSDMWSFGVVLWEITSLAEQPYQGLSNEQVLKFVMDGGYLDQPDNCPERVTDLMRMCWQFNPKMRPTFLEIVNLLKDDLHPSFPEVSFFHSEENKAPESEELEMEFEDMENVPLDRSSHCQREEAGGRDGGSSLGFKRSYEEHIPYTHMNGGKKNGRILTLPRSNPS

adipocytes = test: 3H-glucose uptake into adipocytes (fat cell assay, FFC); type: cell-based, Mouse; set-up: key to FFC: 0 is no effect; + is agonist; - is antagonist

Molecule	Kd ([2]; read-out: HIR affinity)	other results
CC[C@H](C)[C@H](NC(=O)[C@@H](N)CCCCN)C(=O)NCC(=O)NCC(=O)N[C@@H](CCC(N)=O)C(=O)NCC(=O)N[C@@H](CCC(N)=O)C(=O)N[C@@H](Cc1c[nH]cn1)C(=O)N[C@@H](CCC(N)=O)C(=O)N[C@@H](CC(=O)O)C(=O)NCC(=O)N[C@@H](CC(N)=O)C(=O)N[C@@H](Cc1ccccc1)C(=O)N[C@@H](Cc1ccc(O)cc1)C(=O)N[C@@H](CC(=O)O)C(=O)N[C@@H](Cc1c[nH]c2ccccc12)C(=O)N[C@@H](Cc1ccccc1)C(=O)N[C@H](C(=O)N[C@@H](CCC(=O)O)C(=O)N[C@@H](C)C(=O)N[C@@H](CC(C)C)C(=O)N[C@@H](C)C(=O)N[C@@H](CCCCN)C(=O)N[C@@H](CCCCNC(=O)CCCC[C@@H]1SC[C@@H]2NC(=O)N[C@@H]21)C(N)=O)C(C)C [Clone D101] (H-KIGGQGQHQDGNFYDWFVEALAKK(Biotin)-NH2)	–	Kd [1]: 13 µM
CC(C)C[C@H](NC(=O)[C@H](C)NC(=O)[C@H](Cc1c[nH]c2ccccc12)NC(=O)[C@H](CO)NC(=O)[C@H](Cc1c[nH]cn1)NC(=O)CNC(=O)[C@@H](N)CCCCN)C(=O)N[C@H](C(=O)N[C@@H](CCCNC(=N)N)C(=O)N[C@@H](Cc1c[nH]cn1)C(=O)N[C@H](C(=O)N[C@@H](CC(=O)O)C(=O)N[C@@H](CCCNC(=N)N)C(=O)N[C@@H](CC(C)C)C(=O)N[C@@H](Cc1ccccc1)C(=O)N[C@@H](Cc1ccc(O)cc1)C(=O)N[C@@H](CCC(=O)O)C(=O)N[C@@H](Cc1c[nH]c2ccccc12)C(=O)N[C@@H](Cc1ccccc1)C(=O)N[C@@H](CC(=O)O)C(=O)N[C@@H](CC(C)C)C(=O)N[C@@H](CCCCN)C(=O)N[C@@H](CCCCNC(=O)CCCC[C@@H]1SC[C@@H]2NC(=O)N[C@@H]21)C(N)=O)C(C)C)C(C)C [Clone D104] (H-KGHSWALVRHVDRLFYEWFDLKK(Biotin)-NH2)	–	Kd [1]: > 20 µM; Kd ([2]; read-out: Kd (µM) HIR): 20 µM
C[C@@H](O)[C@H](NC(=O)[C@@H]1CCCN1C(=O)[C@H](CCCCN)NC(=O)[C@H](CC(=O)O)NC(=O)[C@H](CCCNC(=N)N)NC(=O)[C@@H](N)CCCCN)C(=O)N[C@@H](CC(=O)O)C(=O)N[C@@H](CCC(N)=O)C(=O)N[C@@H](CCC(=O)O)C(=O)N[C@@H](CCC(=O)O)C(=O)N[C@@H](CCC(N)=O)C(=O)N[C@@H](CC(N)=O)C(=O)N[C@@H](Cc1c[nH]c2ccccc12)C(=O)N[C@@H](CO)C(=O)N[C@@H](Cc1ccccc1)C(=O)N[C@@H](Cc1ccc(O)cc1)C(=O)N[C@@H](CCC(=O)O)C(=O)N[C@@H](Cc1c[nH]c2ccccc12)C(=O)N[C@@H](Cc1ccccc1)C(=O)N[C@@H](CCCNC(=N)N)C(=O)N[C@@H](Cc1c[nH]cn1)C(=O)N[C@@H](CCCCN)C(=O)N[C@@H](CCCCNC(=O)CCCC[C@@H]1SC[C@@H]2NC(=O)N[C@@H]21)C(N)=O [Clone D105] (H-KRDKPTDQEEQNWSFYEWFRHKK(Biotin)-NH2)	–	Kd [1]: 12 µM; Kd ([2]; read-out: Kd (µM) HIR): 2.8 µM
CC(C)C[C@H](NC(=O)[C@H](CCC(N)=O)NC(=O)[C@H](CCC(N)=O)NC(=O)[C@H](CO)NC(=O)[C@H](CCCNC(=N)N)NC(=O)[C@H](CS)NC(=O)[C@H](CC(N)=O)NC(=O)[C@H](Cc1c[nH]c2ccccc12)NC(=O)[C@H](Cc1ccccc1)NC(=O)[C@@H](NC(=O)[C@@H](N)CCCCN)C(C)C)C(=O)N[C@@H](CC(=O)O)C(=O)N[C@@H](Cc1ccccc1)C(=O)N[C@@H](Cc1ccc(O)cc1)C(=O)N[C@@H](CCC(=O)O)C(=O)N[C@@H](Cc1c[nH]c2ccccc12)C(=O)N[C@@H](Cc1ccccc1)C(=O)N[C@@H](CCC(=O)O)C(=O)N[C@@H](CCC(N)=O)C(=O)N[C@@H](C)C(=O)N[C@@H](C)C(=O)N[C@@H](CCCCN)C(=O)N[C@@H](CCCCNC(=O)CCCC[C@@H]1SC[C@@H]2NC(=O)N[C@@H]21)C(N)=O [Clone D106] (H-KVFWNCRSQQLDFYEWFEQAAKK(Biotin)-NH2)	–	Kd [1]: 6.2 µM; Kd ([2]; read-out: Kd (µM) HIR): 0.97 µM
CC(C)[C@H](NC(=O)[C@H](Cc1ccccc1)NC(=O)[C@H](Cc1c[nH]c2ccccc12)NC(=O)[C@H](CC(=O)O)NC(=O)[C@H](Cc1ccc(O)cc1)NC(=O)[C@H](Cc1ccccc1)NC(=O)[C@H](CC(N)=O)NC(=O)[C@H](CCC(=O)O)NC(=O)[C@H](Cc1c[nH]cn1)NC(=O)[C@@H](N)Cc1ccccc1)C(=O)N[C@@H](CCCNC(=N)N)C(=O)N[C@@H](CCC(N)=O)C(=O)N[C@H](C(=O)N[C@@H](CO)C(=O)N[C@@H](CCCCN)C(=O)N[C@@H](CCCCN)C(=O)O)C(C)C [Clone D117A]	–	Kd [1]: 5.1 µM
CC[C@H](C)[C@H](NC(=O)[C@H](CCC(=O)O)NC(=O)[C@@H](N)CCCCN)C(=O)N[C@@H](CCC(=O)O)C(=O)N[C@@H](C)C(=O)N[C@@H](CCC(=O)O)C(=O)N[C@@H](Cc1c[nH]c2ccccc12)C(=O)NCC(=O)N[C@@H](CCCNC(=N)N)C(=O)N[C@H](C(=O)N[C@@H](CCCNC(=N)N)C(=O)N[C@H]1CSSC[C@@H](C(=O)N[C@H](C(=O)NCC(=O)NCC(=O)N[C@@H](CCCCN)C(=O)N[C@@H](CCCCNC(=O)CCCC[C@@H]2SC[C@@H]3NC(=O)N[C@@H]32)C(=O)O)C(C)C)NC(=O)[C@H](CCCNC(=N)N)NC(=O)CNC(=O)[C@H](Cc2ccc(O)cc2)NC(=O)[C@H](C(C)C)NC(=O)[C@H](CC(C)C)NC1=O)C(C)C [Clone D122A] (H-KEIEAEWGRVRCLVYGRCVGGKK(Biotin)-OH; disulfide 12-18 (inferred); N-terminus assumed)	–	Ratio [1]: >20
CC(C)C[C@@H]1NC(=O)[C@H](CO)NC(=O)[C@H](C)NC(=O)CNC(=O)[C@H](Cc2c[nH]c3ccccc23)NC(=O)[C@H](Cc2ccccc2)NC(=O)[C@H](CC(C)C)NC(=O)[C@H](CCC(=O)O)NC(=O)[C@H](CCC(=O)O)NC(=O)[C@H](CC(C)C)NC(=O)[C@H](C(C)C)NC(=O)[C@@H](NC(=O)[C@H](CC(C)C)NC(=O)[C@H](Cc2c[nH]cn2)NC(=O)[C@@H](N)CCCCN)CSSC[C@@H](C(=O)N[C@@H](CO)C(=O)NCC(=O)N[C@@H](CCCCN)C(=O)N[C@@H](CCCCNC(=O)CCCC[C@@H]2SC[C@@H]3NC(=O)N[C@@H]32)C(=O)O)NC(=O)[C@H](Cc2ccc(O)cc2)NC(=O)CNC(=O)[C@H](Cc2ccccc2)NC1=O [Clone D124A] (H-KHLCVLEELFWGASLFGYCSGKK(Biotin)-OH; disulfide 4-19 (inferred); N-terminus assumed)	–	Ratio [1]: >200
CC(C)[C@H](NC(=O)[C@H](Cc1ccccc1)NC(=O)[C@H](Cc1c[nH]c2ccccc12)NC(=O)[C@H](CC(=O)O)NC(=O)[C@H](Cc1ccc(O)cc1)NC(=O)[C@H](Cc1ccccc1)NC(=O)[C@H](CC(N)=O)NC(=O)[C@H](CCC(=O)O)NC(=O)[C@H](Cc1c[nH]cn1)NC(=O)[C@H](Cc1ccccc1)NC(=O)CNC(=O)[C@@H](N)CS)C(=O)N[C@@H](CCCNC(=N)N)C(=O)N[C@@H](CCC(N)=O)C(=O)N[C@H](C(=O)N[C@@H](CO)C(=O)N[C@@H](CCCCN)C(=O)N[C@@H](CCCCN)C(N)=O)C(C)C [Clone S171]	2.9 µM	–
CC(C)[C@H](NC(=O)[C@H](Cc1ccccc1)NC(=O)[C@H](Cc1c[nH]c2ccccc12)NC(=O)[C@H](CC(=O)O)NC(=O)[C@H](Cc1ccc(O)cc1)NC(=O)[C@H](Cc1ccccc1)NC(=O)[C@H](CC(N)=O)NC(=O)[C@H](CCC(=O)O)NC(=O)[C@H](Cc1c[nH]cn1)NC(=O)[C@@H](N)Cc1ccccc1)C(=O)N[C@@H](CCCNC(=N)N)C(=O)N[C@@H](CCC(N)=O)C(=O)N[C@H](C(=O)N[C@@H](CO)C(=O)N[C@@H](CCCCN)C(=O)N[C@@H](CCCCN)C(=O)N[C@@H](CNC(=O)CON=CCCCCCCC=NOCC(=O)NC[C@H](NC(=O)[C@H](CCCCN)NC(=O)[C@H](CCCCN)NC(=O)[C@H](CO)NC(=O)[C@@H](NC(=O)[C@H](CCC(N)=O)NC(=O)[C@H](CCCNC(=N)N)NC(=O)[C@@H](NC(=O)[C@H](Cc1ccccc1)NC(=O)[C@H](Cc1c[nH]c2ccccc12)NC(=O)[C@H](CC(=O)O)NC(=O)[C@H](Cc1ccc(O)cc1)NC(=O)[C@H](Cc1ccccc1)NC(=O)[C@H](CC(N)=O)NC(=O)[C@H](CCC(=O)O)NC(=O)[C@H](Cc1c[nH]cn1)NC(=O)[C@@H](N)Cc1ccccc1)C(C)C)C(C)C)C(N)=O)C(N)=O)C(C)C [Clone S172]	4.8 µM	–
AAAAFYDWFAAAAAKK-NH2 [Clone S168]	3.8 µM	–
AFYDWF-NH2 [Clone S182]	> 20 µM	–
AFYDWFA-NH2 [Clone S181]	> 20 µM	–
AFYDWFAK-NH2 [Clone S180]	> 20 µM	–
AFYEWFAKK-NH2 [Clone S214]	> 20 µM	–
AFYGWFAKK-NH2 [Clone S215]	> 20 µM	–
AFYKWFAKK-NH2 [Clone S216]	> 20 µM	–
AHENFYDWFVRQVSKK-NH2 [Clone S113]	0.59 µM	–
ALEEEWAWVQVRSIRSGLPL-NH2 [Clone S284]	> 20 µM	–
APVSTEELRWGALLFGQWAG-NH2 [Clone S283]	> 20 µM	–

Molecule	Kd ([2]; read-out: HIR affinity)	other results
Ac-FYDWF-NH2 [Clone S184]	> 20 µM	FFC (adipocytes): 0
DPFYQGLWEWLRESGEE-NH2 [Clone S289]	> 20 µM	–
FAENFYDWFVRQVSKK-NH2 [Clone S112]	0.61 µM	–
FHENFYDAFVRQVSKK [Clone S222]	> 20 µM	FFC (adipocytes): 0
FHENFYDWFVAQVSKK-NH2 [Clone S108]	0.75 µM	–
FHENFYDWFVRAVSKK-NH2 [Clone S107]	1 µM	–
FHENFYDWFVRQASKK-NH2 [Clone S106]	0.42 µM	–
FHENFYDWFVRQVAKK-NH2 [Clone S105]	0.31 µM	–
FYDWF-NH2 [Clone S165]	> 20 µM	–
FYDWFKK-NH2 [Clone S166]	> 20 µM	–
GFREGQRWYWFVAQVT-NH2 [Clone S278]	> 20 µM	–
HLSVGEELSWWVALLGQWAR-NH2 [Clone S282]	> 20 µM	–
LDRQFYRYFQDLLVGFM-NH2 [Clone S260]	2.3 µM	–
QAPSNFYDWFVREWDEE-NH2 [Clone S287]	5.9 µM	–
QSFYDYIEELLGGEWKK-NH2 [Clone S288]	4.3 µM	–
RWPNFYGYFESLLTHFS-NH2 [Clone S257]	14 µM	–
TGHRLGLDEQFYWWFRDALSG-NH2 [Clone S265]	0.11 µM	–
WGRSFYRYFETLLAQGI-NH2 [Clone S261]	> 20 µM	–
